According to paper PMC4685510, “A Cell Biologist’s Field Guide to Aurora Kinase Inhibitors” (Frontiers in Oncology, 2015):

Legend:
Assay in all cases: biochemical
Type in all cases: biochemical
[1] = molecular target: 363 human kinases (including Aurora A/B/C) (Homo sapiens, UniProt O94804); settings: LOK/STK10; for remaining activity at 0.1 µM: 100 nM; for remaining activity at 0.1 µM / remaining activity at 0.5 µM: read-out: % Enzyme Activity (relative to DMSO controls)
Description: (§1) However, the Aurora A/B selectivity ratios derived from our in vitro and in vivo data can be compared to prioritize inhibitors.

[2] = molecular target: T1, 363 human kinases (including Aurora A/B/C) (Homo sapiens, UniProt Q86YV6); settings: MYLK4; for remaining activity at 0.1 µM: 100 nM; for remaining activity at 0.1 µM / remaining activity at 0.5 µM: read-out: % Enzyme Activity (relative to DMSO controls)
T1 sequence (Q86YV6 1-388): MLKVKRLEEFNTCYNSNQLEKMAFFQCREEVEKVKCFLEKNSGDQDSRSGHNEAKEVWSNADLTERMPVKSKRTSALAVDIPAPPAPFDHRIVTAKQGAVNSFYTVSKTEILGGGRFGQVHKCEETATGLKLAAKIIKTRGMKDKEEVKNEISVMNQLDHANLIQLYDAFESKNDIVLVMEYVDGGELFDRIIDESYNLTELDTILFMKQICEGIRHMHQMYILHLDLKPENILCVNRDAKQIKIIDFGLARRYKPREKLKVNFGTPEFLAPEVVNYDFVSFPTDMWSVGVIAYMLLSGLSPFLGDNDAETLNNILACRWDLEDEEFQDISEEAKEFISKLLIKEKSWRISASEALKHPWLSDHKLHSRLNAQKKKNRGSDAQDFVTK
Description: as §1

[3] = molecular target: T2, 363 human kinases (including Aurora A/B/C) (Homo sapiens, UniProt Q8WTQ7); settings: GRK7; for remaining activity at 0.1 µM: 100 nM; for remaining activity at 0.1 µM / remaining activity at 0.5 µM: read-out: % Enzyme Activity (relative to DMSO controls)
T2 sequence (Q8WTQ7 1-553): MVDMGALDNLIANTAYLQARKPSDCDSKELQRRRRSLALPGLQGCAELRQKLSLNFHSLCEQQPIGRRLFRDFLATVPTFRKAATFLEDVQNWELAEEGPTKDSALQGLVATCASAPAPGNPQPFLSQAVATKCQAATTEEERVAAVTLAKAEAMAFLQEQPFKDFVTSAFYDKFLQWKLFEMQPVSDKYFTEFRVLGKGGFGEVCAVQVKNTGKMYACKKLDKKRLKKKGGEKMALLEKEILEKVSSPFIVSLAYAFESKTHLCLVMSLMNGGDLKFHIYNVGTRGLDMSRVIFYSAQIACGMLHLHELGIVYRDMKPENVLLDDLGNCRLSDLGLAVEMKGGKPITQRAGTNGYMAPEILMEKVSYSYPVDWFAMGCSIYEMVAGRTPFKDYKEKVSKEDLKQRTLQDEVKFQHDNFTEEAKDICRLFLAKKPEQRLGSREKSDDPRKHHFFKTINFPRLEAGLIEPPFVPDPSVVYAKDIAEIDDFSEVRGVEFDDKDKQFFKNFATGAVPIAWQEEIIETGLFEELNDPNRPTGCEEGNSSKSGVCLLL
Description: as §1

[4] = molecular target: 363 human kinases (including Aurora A/B/C) (Homo sapiens, UniProt O00506); settings: STK25/YSK1; for remaining activity at 0.1 µM: 100 nM; for remaining activity at 0.1 µM / remaining activity at 0.5 µM: read-out: % Enzyme Activity (relative to DMSO controls)
Description: as §1

[5] = molecular target: 363 human kinases (including Aurora A/B/C) (Homo sapiens, UniProt Q9NYY3); settings: PLK2; for remaining activity at 0.1 µM: 100 nM; for remaining activity at 0.1 µM / remaining activity at 0.5 µM: read-out: % Enzyme Activity (relative to DMSO controls)
Description: as §1

[6] = molecular target: 363 human kinases (including Aurora A/B/C) (Homo sapiens, UniProt P43405); settings: SYK; for remaining activity at 0.1 µM: 100 nM; for remaining activity at 0.1 µM / remaining activity at 0.5 µM: read-out: % Enzyme Activity (relative to DMSO controls)
Description: as §1

[7] = molecular target: 363 human kinases (including Aurora A/B/C) (Homo sapiens, UniProt P09769); settings: FGR, [ATP] 50 µM; for remaining activity at 0.1 µM: 100 nM; for remaining activity at 0.1 µM / remaining activity at 0.5 µM: read-out: % Enzyme Activity (relative to DMSO controls)
Description: as §1

[8] = molecular target: 363 human kinases (including Aurora A/B/C) (Homo sapiens, UniProt O14578); settings: STK21/CIT; for remaining activity at 0.1 µM: 100 nM; for remaining activity at 0.1 µM / remaining activity at 0.5 µM: read-out: % Enzyme Activity (relative to DMSO controls)
Sequence of 363 human kinases (including Aurora A/B/C) (Homo sapiens, UniProt O14578) (O14578 whole entry): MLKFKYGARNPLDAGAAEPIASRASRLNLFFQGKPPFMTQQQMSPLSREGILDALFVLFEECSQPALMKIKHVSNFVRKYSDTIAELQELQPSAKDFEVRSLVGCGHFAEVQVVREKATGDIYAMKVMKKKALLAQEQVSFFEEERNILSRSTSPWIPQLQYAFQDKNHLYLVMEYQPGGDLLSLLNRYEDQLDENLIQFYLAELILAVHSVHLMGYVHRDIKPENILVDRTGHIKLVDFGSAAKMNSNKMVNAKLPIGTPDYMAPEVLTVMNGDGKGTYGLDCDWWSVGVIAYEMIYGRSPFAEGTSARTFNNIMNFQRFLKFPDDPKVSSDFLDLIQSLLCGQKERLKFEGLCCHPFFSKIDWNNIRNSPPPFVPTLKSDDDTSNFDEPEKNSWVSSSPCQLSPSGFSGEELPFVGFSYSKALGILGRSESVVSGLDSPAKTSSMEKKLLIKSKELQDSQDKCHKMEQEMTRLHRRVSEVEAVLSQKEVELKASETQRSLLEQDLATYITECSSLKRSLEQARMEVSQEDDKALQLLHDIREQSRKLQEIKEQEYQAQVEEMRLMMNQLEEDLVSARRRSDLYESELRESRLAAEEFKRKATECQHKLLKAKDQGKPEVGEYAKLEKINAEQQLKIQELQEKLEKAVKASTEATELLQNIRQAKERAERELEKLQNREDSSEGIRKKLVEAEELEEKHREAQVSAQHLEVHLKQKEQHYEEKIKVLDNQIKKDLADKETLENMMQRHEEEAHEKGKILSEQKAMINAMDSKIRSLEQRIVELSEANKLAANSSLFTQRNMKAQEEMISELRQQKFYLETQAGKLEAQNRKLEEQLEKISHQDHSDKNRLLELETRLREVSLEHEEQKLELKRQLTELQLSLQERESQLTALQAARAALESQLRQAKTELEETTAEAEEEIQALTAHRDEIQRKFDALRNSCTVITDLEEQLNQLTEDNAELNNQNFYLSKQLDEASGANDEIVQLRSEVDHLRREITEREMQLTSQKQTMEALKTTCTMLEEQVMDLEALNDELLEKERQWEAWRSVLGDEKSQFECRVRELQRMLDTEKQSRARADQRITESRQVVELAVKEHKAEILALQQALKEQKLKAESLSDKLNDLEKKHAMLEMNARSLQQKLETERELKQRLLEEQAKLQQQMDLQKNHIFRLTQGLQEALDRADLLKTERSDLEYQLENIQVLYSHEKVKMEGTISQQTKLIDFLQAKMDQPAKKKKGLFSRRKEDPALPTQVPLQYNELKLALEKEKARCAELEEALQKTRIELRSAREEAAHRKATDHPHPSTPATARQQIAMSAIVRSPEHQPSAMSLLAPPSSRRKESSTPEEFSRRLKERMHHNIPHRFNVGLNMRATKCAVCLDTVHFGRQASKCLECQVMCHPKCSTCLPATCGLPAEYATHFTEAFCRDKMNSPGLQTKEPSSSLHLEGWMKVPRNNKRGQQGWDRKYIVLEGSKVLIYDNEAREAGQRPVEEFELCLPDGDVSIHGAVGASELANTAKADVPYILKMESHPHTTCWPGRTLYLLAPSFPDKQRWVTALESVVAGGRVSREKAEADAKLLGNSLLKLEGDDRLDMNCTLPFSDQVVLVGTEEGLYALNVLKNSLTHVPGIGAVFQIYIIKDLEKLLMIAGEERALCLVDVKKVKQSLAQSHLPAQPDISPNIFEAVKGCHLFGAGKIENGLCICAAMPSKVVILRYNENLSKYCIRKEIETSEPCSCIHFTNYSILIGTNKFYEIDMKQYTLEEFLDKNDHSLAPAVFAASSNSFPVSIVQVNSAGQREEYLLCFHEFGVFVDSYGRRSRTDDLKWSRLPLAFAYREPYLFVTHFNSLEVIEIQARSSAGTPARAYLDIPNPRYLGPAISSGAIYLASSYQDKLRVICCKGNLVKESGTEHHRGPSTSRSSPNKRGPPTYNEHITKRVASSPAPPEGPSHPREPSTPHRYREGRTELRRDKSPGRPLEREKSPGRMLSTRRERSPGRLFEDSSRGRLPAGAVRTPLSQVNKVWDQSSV
Description: as §1

[9] = molecular target: 363 human kinases (including Aurora A/B/C) (Homo sapiens, UniProt P53779); settings: JNK3; for remaining activity at 0.1 µM: 100 nM; for remaining activity at 0.1 µM / remaining activity at 0.5 µM: read-out: % Enzyme Activity (relative to DMSO controls)
Sequence of 363 human kinases (including Aurora A/B/C) (Homo sapiens, UniProt P53779) (P53779 whole entry): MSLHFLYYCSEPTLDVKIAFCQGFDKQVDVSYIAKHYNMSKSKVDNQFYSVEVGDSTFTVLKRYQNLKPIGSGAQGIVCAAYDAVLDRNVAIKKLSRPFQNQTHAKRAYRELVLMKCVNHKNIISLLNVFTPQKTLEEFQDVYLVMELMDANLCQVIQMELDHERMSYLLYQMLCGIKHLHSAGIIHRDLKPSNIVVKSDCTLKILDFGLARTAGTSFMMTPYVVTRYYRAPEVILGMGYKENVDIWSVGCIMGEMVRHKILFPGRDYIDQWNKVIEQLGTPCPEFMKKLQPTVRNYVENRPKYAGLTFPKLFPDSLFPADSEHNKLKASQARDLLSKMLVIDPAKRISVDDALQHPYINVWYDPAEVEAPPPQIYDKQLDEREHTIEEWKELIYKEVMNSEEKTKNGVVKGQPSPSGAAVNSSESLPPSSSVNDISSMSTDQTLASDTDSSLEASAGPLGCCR
Description: as §1

[10] = molecular target: 363 human kinases (including Aurora A/B/C) (Homo sapiens, UniProt Q05655); settings: PKCd; for remaining activity at 0.1 µM: 100 nM; for remaining activity at 0.1 µM / remaining activity at 0.5 µM: read-out: % Enzyme Activity (relative to DMSO controls)
Sequence of 363 human kinases (including Aurora A/B/C) (Homo sapiens, UniProt Q05655) (Q05655 whole entry): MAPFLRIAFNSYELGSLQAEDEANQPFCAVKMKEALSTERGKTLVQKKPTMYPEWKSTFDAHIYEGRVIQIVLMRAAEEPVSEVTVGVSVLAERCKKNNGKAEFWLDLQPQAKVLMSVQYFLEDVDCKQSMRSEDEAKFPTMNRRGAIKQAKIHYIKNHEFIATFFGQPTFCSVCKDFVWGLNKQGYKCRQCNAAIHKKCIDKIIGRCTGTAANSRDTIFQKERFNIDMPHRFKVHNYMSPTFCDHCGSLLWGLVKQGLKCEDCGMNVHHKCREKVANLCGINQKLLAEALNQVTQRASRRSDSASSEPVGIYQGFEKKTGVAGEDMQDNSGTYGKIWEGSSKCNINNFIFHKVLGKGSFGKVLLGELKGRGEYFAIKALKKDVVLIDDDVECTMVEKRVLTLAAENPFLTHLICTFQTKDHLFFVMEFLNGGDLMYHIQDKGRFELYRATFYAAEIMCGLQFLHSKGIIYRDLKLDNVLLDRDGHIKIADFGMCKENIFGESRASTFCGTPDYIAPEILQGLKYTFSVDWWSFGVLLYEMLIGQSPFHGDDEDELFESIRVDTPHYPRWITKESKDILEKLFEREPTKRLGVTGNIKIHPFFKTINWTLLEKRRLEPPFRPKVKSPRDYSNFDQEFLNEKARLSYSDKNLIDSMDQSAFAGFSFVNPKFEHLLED
Description: as §1

[11] = molecular target: 363 human kinases (including Aurora A/B/C) (Homo sapiens, UniProt P78362); settings: SRPK2; for remaining activity at 0.1 µM: 100 nM; for remaining activity at 0.1 µM / remaining activity at 0.5 µM: read-out: % Enzyme Activity (relative to DMSO controls)
Description: as §1

[12] = molecular target: 363 human kinases (including Aurora A/B/C) (Homo sapiens, UniProt Q9H2X6); settings: HIPK2; for remaining activity at 0.1 µM: 100 nM; for remaining activity at 0.1 µM / remaining activity at 0.5 µM: read-out: % Enzyme Activity (relative to DMSO controls)
Sequence of 363 human kinases (including Aurora A/B/C) (Homo sapiens, UniProt Q9H2X6) (Q9H2X6 whole entry): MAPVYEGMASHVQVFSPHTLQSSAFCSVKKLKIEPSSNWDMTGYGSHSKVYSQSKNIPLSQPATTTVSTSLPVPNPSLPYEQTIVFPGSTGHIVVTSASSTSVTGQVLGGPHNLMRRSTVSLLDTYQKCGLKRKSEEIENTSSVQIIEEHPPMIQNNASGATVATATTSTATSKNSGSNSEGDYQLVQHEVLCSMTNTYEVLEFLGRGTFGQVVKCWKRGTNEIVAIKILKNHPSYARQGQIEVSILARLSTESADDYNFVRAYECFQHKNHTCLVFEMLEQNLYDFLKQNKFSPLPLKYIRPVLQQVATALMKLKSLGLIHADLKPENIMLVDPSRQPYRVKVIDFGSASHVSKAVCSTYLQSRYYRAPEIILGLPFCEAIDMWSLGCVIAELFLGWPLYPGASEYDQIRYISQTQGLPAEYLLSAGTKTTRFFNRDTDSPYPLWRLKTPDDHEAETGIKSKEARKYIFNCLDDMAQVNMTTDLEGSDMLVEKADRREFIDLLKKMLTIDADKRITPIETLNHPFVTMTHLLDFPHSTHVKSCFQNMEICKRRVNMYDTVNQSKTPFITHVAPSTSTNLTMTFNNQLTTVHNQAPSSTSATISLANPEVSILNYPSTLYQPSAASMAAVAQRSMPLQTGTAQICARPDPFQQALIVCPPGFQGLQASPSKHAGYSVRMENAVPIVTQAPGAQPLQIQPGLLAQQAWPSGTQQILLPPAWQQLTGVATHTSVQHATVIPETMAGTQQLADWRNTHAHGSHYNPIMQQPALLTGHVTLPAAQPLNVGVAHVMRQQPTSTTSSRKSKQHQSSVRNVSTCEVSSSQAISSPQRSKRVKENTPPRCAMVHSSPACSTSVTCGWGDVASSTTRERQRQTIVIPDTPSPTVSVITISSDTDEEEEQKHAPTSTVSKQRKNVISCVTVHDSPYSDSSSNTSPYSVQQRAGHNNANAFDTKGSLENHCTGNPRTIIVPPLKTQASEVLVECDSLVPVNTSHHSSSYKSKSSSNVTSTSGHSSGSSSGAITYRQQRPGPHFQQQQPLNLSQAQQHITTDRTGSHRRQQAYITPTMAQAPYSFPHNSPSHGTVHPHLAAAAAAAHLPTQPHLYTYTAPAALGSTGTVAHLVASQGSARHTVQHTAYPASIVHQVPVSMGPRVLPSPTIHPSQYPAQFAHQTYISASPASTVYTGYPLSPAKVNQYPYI
Description: as §1

[13] = molecular target: 363 human kinases (including Aurora A/B/C) (Homo sapiens, UniProt P17612); settings: PKA; for remaining activity at 0.1 µM: 100 nM; for remaining activity at 0.1 µM / remaining activity at 0.5 µM: read-out: % Enzyme Activity (relative to DMSO controls)
Description: as §1

[14] = molecular target: T3, 363 human kinases (including Aurora A/B/C) (Homo sapiens, UniProt Q9NWZ3); settings: IRAK4; for remaining activity at 0.1 µM: 100 nM; for remaining activity at 0.1 µM / remaining activity at 0.5 µM: read-out: % Enzyme Activity (relative to DMSO controls)
T3 sequence (Q9NWZ3 1-460): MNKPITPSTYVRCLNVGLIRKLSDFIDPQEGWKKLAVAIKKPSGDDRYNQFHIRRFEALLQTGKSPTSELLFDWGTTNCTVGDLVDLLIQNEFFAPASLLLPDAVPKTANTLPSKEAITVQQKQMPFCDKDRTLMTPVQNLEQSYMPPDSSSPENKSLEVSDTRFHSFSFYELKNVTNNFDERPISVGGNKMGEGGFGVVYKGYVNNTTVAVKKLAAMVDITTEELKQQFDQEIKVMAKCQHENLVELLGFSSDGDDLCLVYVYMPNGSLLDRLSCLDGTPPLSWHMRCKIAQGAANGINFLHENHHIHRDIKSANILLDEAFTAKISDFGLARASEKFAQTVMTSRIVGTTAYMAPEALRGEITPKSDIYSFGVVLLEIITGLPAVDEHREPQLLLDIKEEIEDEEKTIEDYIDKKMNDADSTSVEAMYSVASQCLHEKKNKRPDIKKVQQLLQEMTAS
Description: as §1

[15] = molecular target: 363 human kinases (including Aurora A/B/C) (Homo sapiens, UniProt P07948); settings: LYN; for remaining activity at 0.1 µM: 100 nM; for remaining activity at 0.1 µM / remaining activity at 0.5 µM: read-out: % Enzyme Activity (relative to DMSO controls)
Sequence of 363 human kinases (including Aurora A/B/C) (Homo sapiens, UniProt P07948) (P07948 whole entry): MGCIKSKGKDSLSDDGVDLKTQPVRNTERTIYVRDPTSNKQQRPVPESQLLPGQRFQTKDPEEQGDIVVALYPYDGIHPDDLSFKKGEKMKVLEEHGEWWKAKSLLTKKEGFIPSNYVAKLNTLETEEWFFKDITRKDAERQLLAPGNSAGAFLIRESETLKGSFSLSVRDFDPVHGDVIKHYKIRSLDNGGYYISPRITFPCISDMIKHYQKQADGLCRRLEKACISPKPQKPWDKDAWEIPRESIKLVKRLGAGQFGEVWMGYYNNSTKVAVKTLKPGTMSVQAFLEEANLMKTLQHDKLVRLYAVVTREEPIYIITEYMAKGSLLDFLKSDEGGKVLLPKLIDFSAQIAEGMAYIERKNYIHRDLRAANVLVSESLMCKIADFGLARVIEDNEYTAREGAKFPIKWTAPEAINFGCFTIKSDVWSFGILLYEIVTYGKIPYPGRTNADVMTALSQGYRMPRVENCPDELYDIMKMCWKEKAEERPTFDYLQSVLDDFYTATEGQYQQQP
Description: as §1

SMILES | remaining activity at 0.1 µM [1] [%] | remaining activity at 0.5 µM ([1]; 500 nM) [%] | remaining activity at 0.1 µM [2] [%] | remaining activity at 0.5 µM ([2]; 500 nM) [%] | remaining activity at 0.1 µM [3] [%] | remaining activity at 0.5 µM ([3]; 500 nM) [%] | remaining activity at 0.1 µM [4] [%] | remaining activity at 0.5 µM ([4]; 500 nM) [%] | remaining activity at 0.1 µM [5] [%] | remaining activity at 0.5 µM ([5]; 500 nM) [%] | remaining activity at 0.1 µM [6] [%] | remaining activity at 0.5 µM ([6]; 500 nM) [%] | remaining activity at 0.1 µM [7] [%] | remaining activity at 0.5 µM ([7]; 500 nM) [%] | remaining activity at 0.1 µM [8] [%] | remaining activity at 0.5 µM ([8]; 500 nM) [%] | remaining activity at 0.1 µM [9] [%] | remaining activity at 0.5 µM ([9]; 500 nM) [%] | remaining activity at 0.1 µM [10] [%] | remaining activity at 0.5 µM ([10]; 500 nM) [%] | also measured
O=C(O)[C@]1(Cc2cccc(Nc3nccs3)n2)CC[C@@H](Oc2cccc(Cl)c2F)CC1 [MK-5108] | 34 | 10.3 | 93 | 90.4 | 98.7 | 94.2 | 104 | 113 | 88.8 | 85.1 | 93.8 | 63.6 | 22.9 | 6.36 | 115 | 102 | 96.1 | 98.7 | 97.8 | 201 | remaining activity at 0.1 µM [11]: 95.4%; remaining activity at 0.5 µM ([11]; 500 nM): 94.3%; remaining activity at 0.1 µM [12]: 89.2%; remaining activity at 0.5 µM ([12]; 500 nM): 50%; remaining activity at 0.1 µM [13]: 100%; remaining activity at 0.5 µM ([13]; 500 nM): 96.4%; remaining activity at 0.1 µM [14]: 47.6%; remaining activity at 0.5 µM ([14]; 500 nM): 25.6%; remaining activity at 0.1 µM [15]: 76.9%; remaining activity at 0.5 µM ([15]; 500 nM): 45.6%
O=C(c1cccc(Cl)c1F)N1CCN(Cc2cccc(Nc3nccs3)n2)CC1 [MK-8745] | – | 52.1 | – | 93 | – | 101 | – | 100 | – | 81.9 | – | 83.2 | – | 36.3 | – | 104 | – | 78.8 | – | 141 | % Enzyme Activity (relative to DMSO controls) ([1]; 500 nM): 49.80%; % Enzyme Activity (relative to DMSO controls) ([2]; 500 nM): 92.44%; % Enzyme Activity (relative to DMSO controls) ([3]; 500 nM): 97.48%; % Enzyme Activity (relative to DMSO controls) ([4]; 500 nM): 99.16%; % Enzyme Activity (relative to DMSO controls) ([5]; 500 nM): 81.10%; % Enzyme Activity (relative to DMSO controls) ([6]; 500 nM): 82.70%; % Enzyme Activity (relative to DMSO controls) ([7]; 500 nM): 35.97%; % Enzyme Activity (relative to DMSO controls) ([8]; 500 nM): 101.37%; % Enzyme Activity (relative to DMSO controls) ([9]; 500 nM): 78.39%; % Enzyme Activity (relative to DMSO controls) ([10]; 500 nM): 130.26%; % Enzyme Activity (relative to DMSO controls) ([11]; 500 nM): 98.38%; remaining activity at 0.5 µM ([11]; 500 nM): 99.7%; % Enzyme Activity (relative to DMSO controls) ([12]; 500 nM): 102.33%; remaining activity at 0.5 µM ([12]; 500 nM): 106%; % Enzyme Activity (relative to DMSO controls) ([13]; 500 nM): 96.39%; remaining activity at 0.5 µM ([13]; 500 nM): 98.9%; % Enzyme Activity (relative to DMSO controls) ([14]; 500 nM): 79.25%; remaining activity at 0.5 µM ([14]; 500 nM): 79.4%; % Enzyme Activity (relative to DMSO controls) ([15]; 500 nM): 64.18%; remaining activity at 0.5 µM ([15]; 500 nM): 65.1%
CCn1cc(-c2ccnc3[nH]c(-c4cccc(CN(C)C)c4)cc23)c(-c2ccc(NC(=O)N(C)C)cc2)n1 [GSK1070916] | 73.2 | – | 94.3 | – | 100 | – | 98.9 | – | 91.2 | – | 84.8 | – | 97.8 | – | 100 | – | 94 | – | 201 | – | remaining activity at 0.1 µM [11]: 96.5%; remaining activity at 0.1 µM [12]: 104%; remaining activity at 0.1 µM [13]: 95.5%; remaining activity at 0.1 µM [14]: 84.3%; remaining activity at 0.1 µM [15]: 79.2%
